The record followed here is patent publication US10617664B2, “Brain derived PPARα ligands” (Rush University Medical Center, priority 2015, dated 2020).

As usually defined, the EC50 is the concentration giving half of the maximal effect. High values mean a need for much substance, low ones an effect from little substance.

The target in one experiment is T1, PPARα LBD (Homo sapiens, UniProt Q07869).
T1 construct: GST-tagged recombinant PPARα LBD protein; purchased PV4684
T1 sequence (Q07869 239-466 limits assumed): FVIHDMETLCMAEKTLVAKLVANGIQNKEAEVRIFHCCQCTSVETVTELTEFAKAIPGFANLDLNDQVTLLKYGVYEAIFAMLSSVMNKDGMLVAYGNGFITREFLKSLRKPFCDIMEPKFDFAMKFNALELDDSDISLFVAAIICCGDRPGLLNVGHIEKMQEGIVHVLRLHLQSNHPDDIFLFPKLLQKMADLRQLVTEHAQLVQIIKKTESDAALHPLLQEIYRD
Kind of experiment: TR-FRET PPAR-alpha coactivator assay (Lanthascreen). As to conditions: curve fit FIG. 13. The format is biochemical. How it is done:
TR-FRET assay was performed using Lanthascreen TR-FRET PPAR-alpha coactivator assay kit (Cat # PV4684). In this assay, different doses of statin drugs were incubated with GST-tagged recombinant PPARα LBD protein, Terbium (Tb)-tagged anti GST antibody and Fluorescein (FL)-tagged PGC1α as directed in the manufacturer's protocol. The entire reaction was set up in corning 384 well plates by an automated robotic injector. Each plate was centrifuged, incubated in a dark place for 30 mins, and then analyzed “molecular devices analyst” machine equipped with dichroic mirror. The excitation wavelength and emission wavelength were set at 340 nm and 540 nm wavelength respectively.
(Time-resolved FRET reads energy transfer from a long-lived donor to a nearby acceptor.)

The next experiment addresses T2, PPARα (Mus musculus, UniProt P23204).
T2 construct: GFP; made in house; host or cells: not clearly stated (lentivirus packaged in HEK293FT cells)
T2 sequence (P23204 1-468): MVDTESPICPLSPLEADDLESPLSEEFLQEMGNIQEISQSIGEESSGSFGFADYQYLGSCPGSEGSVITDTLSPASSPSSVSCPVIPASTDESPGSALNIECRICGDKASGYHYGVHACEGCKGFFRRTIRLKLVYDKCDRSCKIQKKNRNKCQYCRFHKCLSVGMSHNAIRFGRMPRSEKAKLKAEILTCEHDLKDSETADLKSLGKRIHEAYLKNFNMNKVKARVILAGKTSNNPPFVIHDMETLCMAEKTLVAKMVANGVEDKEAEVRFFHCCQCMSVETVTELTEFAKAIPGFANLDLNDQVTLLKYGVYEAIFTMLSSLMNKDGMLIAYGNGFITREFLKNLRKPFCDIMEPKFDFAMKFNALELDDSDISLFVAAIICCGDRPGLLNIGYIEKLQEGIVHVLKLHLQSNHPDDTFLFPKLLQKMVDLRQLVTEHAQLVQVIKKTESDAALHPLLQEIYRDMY
Kind of experiment: Thermal shift assay, full length PPARα with ligands. The format is binding. The settings on record: full length protein with ligand; protein only x=45.96321. How it is done: Lentivirus-mediated de novo expression studies were performed, where wild type full-length (GFP-FLPpara) was overexpressed and three different LBD-mutated PPARα (GFP-Y314D, GFP-Y464D and GFP-Y314D/Y464D Ppara) recombinant proteins (FIG. 9D) were expressed in neurons followed by binding analyses with three endogenous ligands. Briefly, site directed mutagenesis was performed in the mouse PPARα with Y314 and Y464 residues replaced separately or together with aspartate (D). After that, the entire mouse GFP-Ppara gene (GFP-FLPpara) and three different mutated genes were cloned in the pLenti6/V5-TOPO lentiviral expression vector (FIG. 3D), packaged in lentivirus particle with HEK293FT cells, purified full length and mutated PPARα proteins in a GFP-affinity column, and finally thermal shift assays were performed in order to analyze their conformational stability. […] After 48 h of transduction, the cells were homogenized, passed through GFP-affinity column, eluted, fractionated with chloroform-methanol, and finally analyzed by GC-MS for the detection of ligands. […] On the other hand, mutation of the Y464 completely knocked down the ligand binding affinity as we observed profound loss of ligand binding in both lenti-GFP-Y464D-Ppara (FIG. 3K, FIG. 9K) and lenti-GFP-Y314D/Y464D-Ppara (FIG. 3L, FIG. 9L)-transduced Ppara-null neurons. Throughout these analyses, we used 2,4-bis (α, α-dimethyl benzyl) phenol as an internal standard (Supplementary FIG. 5A-F). We normalized peak area of different ligands with that of internal standard and then quantified the binding affinity of these ligands with different construct of PPARα by peak integration statistics (Table 1).
Thermal shift assays were performed in Applied Biosystems 7500 standard real-time thermal cycler machine with commercially available thermal shift dye kit (Life technologies; Cat #4461146). For each reaction, purified protein (0.5 μg to 1 μg) was added to 18 μL of thermal shift buffer provided with the kit, and 1-2 μL of dye. […]

The test system of the next experiment is CREB. The experiment can be described thus: Immunoblot of CREB in Ppara-null hippocampal neurons transduced with Ppara constructs. In kind it is cell-based, mouse. The protocol:
(FIG. 17A) Immunoblot analyses followed by densitometric analyses of NR2A (FIG. 17B), GluR1 (FIG. 17C) and CREB (FIG. 17D) were performed in Ppara-null and WT hippocampal neurons treated with 5 μM HEX, 5 μM OCT and 50 μM HMB. Data are mean±SD of three different experiments. ^ap<0.05 versus WT-control. Immunocytochemical analyses of NR2A (FIG. 17E) and GluR1 (FIG. 17F) in WT and Ppara-null hippocampal neurons treated with HEX, OCT and HMB. Hippocampal neurons were transduced with lenti-GFP for 48 h followed by treatment with different ligands. Immunoblot analyses followed by relative densitometric analyses of CREB in Ppara-null hippocampal neurons transduced with lentivirions containing different Ppara constructs followed by treatment with HEX (FIG. 17G-H), OCT (FIG. 17I-J) and HMB (FIG. 17K-L). Bands were scanned and presented as relative to control (FIG. 17H, HEX; FIG. 17J, OCT; FIG. 17L, HMB). Data are mean±SD of three different experiments. ^ap<0.05 vs FLPpara control.
For whole-cell and tissue lysates, samples were homogenized in RIPA buffer containing protease and phosphatase inhibitors (Sigma), passed 10 times through a 26-gauge needle, rotated end over end for 30 min at 4° C., and centrifuged for 10 min at 18,000×g. The supernatant was aliquoted and stored at −80° C. until use. Protein concentrations were determined using a NanoDrop 2000 (Thermo Fisher), and 15-30 μg sample was heat-denatured and resolved on 10% or 12% polyacrylamide-SDS gels, transferred to 0.45 μm nitrocellulose membranes under semidry conditions (15V for 12 min). Membranes were blocked for 1 h with blocking buffer (Li-Cor), incubated with primary antibodies overnight at 4° C. under shaking conditions, washed, incubated with IR-dye-labeled secondary antibodies (1:17,000; Li-Cor) for 45 min at room temperature, washed, and visualized with the Odyssey Infrared Imaging System (Li-Cor). Blots were converted to grayscale and then binary, analyzed using Fiji, and normalized to appropriate loading controls.

The molecule `CCCCCCCCCCCCCCCC(N)=O` [HEX, hexadecanamide] yielded an EC50 at PPARα LBD of 4.36 µM. Also, the “x at y=50 of thermal shift curve (melting temperature)” value (from here on “x at y=50 of thermal shift curve”) at PPARα amounted to 59.2835. Besides, the “expression of CREB” value was “stimulated” with CREB (FL-Ppara), “only partially restored” in the experiment with CREB (lenti-Y314D-Ppara), “remained unable to increase” with CREB (lenti-Y464D-Ppara) and “remained unable to increase” in the experiment with CREB (lenti-Y464D/Y314D-Ppara).

Regarding `CCOC(=O)C(C)(C)C(C)O` (stereo not drawn) [HMB], at PPARα LBD, the EC50 is 31.6 µM. On PPARα, the “x at y=50 of thermal shift curve” value was determined as 58.49. The “expression of CREB” value is listed as “stimulated” in the experiment on CREB (FL-Ppara), “only partially restored” in the experiment on CREB (lenti-Y314D-Ppara), “remained unable to increase” in the experiment with CREB (lenti-Y464D-Ppara) and “remained unable to increase” in the experiment on CREB (lenti-Y464D/Y314D-Ppara).

In the case of `CCCCCCCCC=CCCCCCCCC(N)=O` [OCT, 9-octadecenamide], at PPARα LBD, the midpoint of the response, the EC50, lay at 4.31 µM. The “x at y=50 of thermal shift curve” value at PPARα was 59.6128. Also, the “expression of CREB” value in the experiment on CREB (FL-Ppara) is on record as “stimulated”; in the experiment with CREB (lenti-Y314D-Ppara), “only partially restored”; with CREB (lenti-Y464D-Ppara), “remained unable to increase”; with CREB (lenti-Y464D/Y314D-Ppara), “remained unable to increase”.
